The values below come from US8999940B2 (Ipsen Pharma S.A.S., priority 2008, dated 2015).

Structures are written as SMILES.

Series [1] can be described thus: Human plasma half-life assay. The format is in vitro ADME. To be noted: 37° C., LC-MS, read-out: Human Plasma T½ (converted).
A short description of series [2]: Rat plasma half-life assay. The note with it: 37° C., LC-MS, read-out: Rat Plasma T½ (converted). The format is in vitro ADME.
The target in series [3] is T1, human recombinant GIP receptor (Homo sapiens, UniProt P48546).
T1 construct: expressed in transfected cells; host or cells: CHO-K1 clonal cells (membrane preparation)
T1 sequence (P48546 22-466): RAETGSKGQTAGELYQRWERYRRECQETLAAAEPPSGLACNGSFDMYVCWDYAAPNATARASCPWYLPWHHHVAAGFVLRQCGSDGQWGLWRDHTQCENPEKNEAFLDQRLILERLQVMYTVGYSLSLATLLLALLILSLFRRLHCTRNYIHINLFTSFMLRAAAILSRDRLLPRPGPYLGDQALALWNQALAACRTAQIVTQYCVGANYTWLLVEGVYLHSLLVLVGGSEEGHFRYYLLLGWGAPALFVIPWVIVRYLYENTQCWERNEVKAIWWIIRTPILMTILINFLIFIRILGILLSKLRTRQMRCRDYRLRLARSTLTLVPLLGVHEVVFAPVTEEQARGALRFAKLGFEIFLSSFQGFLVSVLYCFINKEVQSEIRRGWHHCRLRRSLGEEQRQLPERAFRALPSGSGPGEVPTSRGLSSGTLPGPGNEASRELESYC
The experiment in a line: In vitro hGIP receptor binding assay. As for the experimental part: A. In Vitro hGIP Receptor Binding Assay […] The incubations were terminated by rapid filtration through GF/C filters (pre-soaked in 0.5% polyethylenimine) using a Brandel filtration manifold. Each tube and filter were then washed three times with 5-ml aliquots of ice-cold buffer.

Broadly, the Ki is the equilibrium dissociation constant of an inhibitor or competing ligand from its target. Consider `CCCC[C@H](NC(=O)[C@H](C)NC(=O)[C@@H](NC(=O)C1(NC(=O)[C@H](Cc2ccc(O)cc2)NC(=O)[C@H](CC(=O)O)NC(=O)[C@H](CO)NC(=O)[C@@H](NC(=O)[C@H](Cc2ccccc2)NC(=O)[C@@H](NC(=O)CNC(=O)[C@H](CCC(=O)O)NC(=O)C(C)(C)NC(=O)[C@@H](N)Cc2cc(F)cc(F)c2)[C@@H](C)O)[C@@H](C)CC)CCCC1)[C@@H](C)CC)C(=O)N[C@@H](CC(=O)O)C(=O)N[C@@H](CCCCN)C(=O)N[C@H](C(=O)N[C@@H](Cc1c[nH]cn1)C(=O)N[C@@H](CCC(N)=O)C(=O)N[C@@H](CCC(N)=O)C(=O)N[C@@H](CC(=O)O)C(=O)N[C@@H](Cc1ccccc1)C(=O)N[C@H](C(=O)N[C@@H](CC(N)=O)C(=O)N[C@@H](Cc1c[nH]c2ccccc12)C(=O)N[C@@H](CC(C)C)C(=O)N[C@@H](CC(C)C)C(=O)N[C@@H](C)C(=O)N[C@@H](CCC(N)=O)C(=O)N[C@@H](CCCCN)C(=O)NCC(=O)N[C@@H](CCCCN)C(=O)N[C@@H](CCCCN)C(=O)N[C@@H](CC(N)=O)C(=O)N[C@@H](CC(=O)O)C(=O)N[C@@H](Cc1c[nH]c2ccccc12)C(=O)N[C@@H](CCCCN)C(=O)N[C@@H](Cc1c[nH]cn1)C(=O)N[C@@H](CC(N)=O)C(=O)N[C@H](C(=O)N[C@H](C(=O)N[C@@H](CCC(N)=O)C(=O)O)[C@@H](C)O)[C@@H](C)CC)C(C)C)[C@@H](C)CC` [Example 25, (3,5F-Phe^1, Aib^2, A5c^11, Nle^14)hGIP(1-42)-OH], for which the half-life at 0.1 mg/ml in series [1] and in series [2] was over 74 h in each case. The Ki in series [3] worked out at 26 nM.
With `CC[C@H](C)[C@H](NC(=O)[C@H](CCCCN)NC(=O)[C@H](CC(=O)O)NC(=O)[C@H](CCSC)NC(=O)[C@H](C)NC(=O)[C@@H](NC(=O)C1(NC(=O)[C@H](Cc2ccc(O)cc2)NC(=O)[C@H](CC(=O)O)NC(=O)[C@H](CO)NC(=O)[C@@H](NC(=O)[C@H](Cc2ccccc2)NC(=O)[C@@H](NC(=O)CNC(=O)[C@H](CCC(=O)O)NC(=O)C(C)(C)NC(=O)[C@@H](N)Cc2cccc(O)c2)[C@@H](C)O)[C@@H](C)CC)CCCC1)[C@@H](C)CC)C(=O)N[C@@H](Cc1c[nH]cn1)C(=O)N[C@@H](CCC(N)=O)C(=O)N[C@@H](CCC(N)=O)C(=O)N[C@@H](CC(=O)O)C(=O)N[C@@H](Cc1ccccc1)C(=O)N[C@H](C(=O)N[C@@H](CC(N)=O)C(=O)N[C@@H](Cc1c[nH]c2ccccc12)C(=O)N[C@@H](CC(C)C)C(=O)N[C@@H](CC(C)C)C(=O)N[C@@H](C)C(=O)N[C@@H](CCC(N)=O)C(=O)N[C@@H](CCCCN)C(=O)NCC(=O)N[C@@H](CCCCN)C(=O)N[C@@H](CCCCN)C(=O)N[C@@H](CC(N)=O)C(=O)N[C@@H](CC(=O)O)C(=O)N[C@@H](Cc1c[nH]c2ccccc12)C(=O)N[C@@H](CCCCN)C(=O)N[C@@H](Cc1c[nH]cn1)C(=O)N[C@@H](CC(N)=O)C(=O)N[C@H](C(=O)NC1(C(=O)N[C@@H](CCC(N)=O)C(=O)O)CCCC1)[C@@H](C)CC)C(C)C` [Example 26, (30H-Phe^1, Aib^2, A5c^11, 41)hGIP(1-42)-OH], the half-life at 0.1 mg/ml in series [1] was 26.2 h; in series [2], 48.8 h. In addition, the inhibition constant Ki in series [3] was determined as 7.52 nM.
On the same counts, the results for `CC[C@H](C)[C@H](NC(=O)[C@H](CCCCN)NC(=O)[C@H](CC(=O)O)NC(=O)[C@H](CCSC)NC(=O)[C@H](C)NC(=O)[C@@H](NC(=O)C1(NC(=O)[C@H](Cc2ccc(O)cc2)NC(=O)[C@H](CC(=O)O)NC(=O)[C@H](CO)NC(=O)[C@@H](NC(=O)[C@H](Cc2ccccc2)NC(=O)[C@@H](NC(=O)CNC(=O)[C@H](CCC(=O)O)NC(=O)C(C)(C)NC(=O)[C@@H](N)Cc2ccc(O)c(O)c2)[C@@H](C)O)[C@@H](C)CC)CCCC1)[C@@H](C)CC)C(=O)N[C@@H](Cc1c[nH]cn1)C(=O)N[C@@H](CCC(N)=O)C(=O)N[C@@H](CCC(N)=O)C(=O)N[C@@H](CC(=O)O)C(=O)N[C@@H](Cc1ccccc1)C(=O)N[C@H](C(=O)N[C@@H](CC(N)=O)C(=O)N[C@@H](Cc1c[nH]c2ccccc12)C(=O)N[C@@H](CC(C)C)C(=O)N[C@@H](CC(C)C)C(=O)N[C@@H](C)C(=O)N[C@@H](CCC(N)=O)C(=O)N[C@@H](CCCCN)C(=O)NCC(=O)N[C@@H](CCCCN)C(=O)N[C@@H](CCCCN)C(=O)N[C@@H](CC(N)=O)C(=O)N[C@@H](CC(=O)O)C(=O)N[C@@H](Cc1c[nH]c2ccccc12)C(=O)N[C@@H](CCCCN)C(=O)N[C@@H](Cc1c[nH]cn1)C(=O)N[C@@H](CC(N)=O)C(=O)N[C@H](C(=O)NC1(C(=O)N[C@@H](CCC(N)=O)C(=O)O)CCCC1)[C@@H](C)CC)C(C)C` [Example 27, (30H-Tyr^1, Aib^2, A5c^11, 41)hGIP(1-42)-OH] are 7 h, 5.1 h and 6.69 nM.
As for `CC[C@H](C)[C@H](NC(=O)[C@H](CCCCN)NC(=O)[C@H](CC(=O)O)NC(=O)[C@H](CCSC)NC(=O)[C@H](C)NC(=O)[C@@H](NC(=O)C1(NC(=O)[C@H](Cc2ccc(O)cc2)NC(=O)[C@H](CC(=O)O)NC(=O)[C@H](CO)NC(=O)[C@@H](NC(=O)[C@H](Cc2ccccc2)NC(=O)[C@@H](NC(=O)CNC(=O)[C@H](CCC(=O)O)NC(=O)C(C)(C)NC(=O)[C@@H](N)Cc2ccc(OC(C)=O)cc2)[C@@H](C)O)[C@@H](C)CC)CCCC1)[C@@H](C)CC)C(=O)N[C@@H](Cc1c[nH]cn1)C(=O)N[C@@H](CCC(N)=O)C(=O)N[C@@H](CCC(N)=O)C(=O)N[C@@H](CC(=O)O)C(=O)N[C@@H](Cc1ccccc1)C(=O)N[C@H](C(=O)N[C@@H](CC(N)=O)C(=O)N[C@@H](Cc1c[nH]c2ccccc12)C(=O)N[C@@H](CC(C)C)C(=O)N[C@@H](CC(C)C)C(=O)N[C@@H](C)C(=O)N[C@@H](CCC(N)=O)C(=O)N[C@@H](CCCCN)C(=O)NCC(=O)N[C@@H](CCCCN)C(=O)N[C@@H](CCCCN)C(=O)N[C@@H](CC(N)=O)C(=O)N[C@@H](CC(=O)O)C(=O)N[C@@H](Cc1c[nH]c2ccccc12)C(=O)N[C@@H](CCCCN)C(=O)N[C@@H](Cc1c[nH]cn1)C(=O)N[C@@H](CC(N)=O)C(=O)N[C@H](C(=O)NC1(C(=O)N[C@@H](CCC(N)=O)C(=O)O)CCCC1)[C@@H](C)CC)C(C)C` [Example 29, [Tyr(Ac)^1, Aib^2, A5c^11, 41]hGIP(1-42)-OH], the values for the half-life at 0.1 mg/ml in series [1] and in series [2] were 29.5 h and 18.9 h, respectively. The inhibitory constant (Ki) in series [3] is 0.73 nM.
On to `CC[C@H](C)[C@H](NC(=O)[C@H](CCCCN)NC(=O)[C@H](CC(=O)O)NC(=O)[C@H](CCSC)NC(=O)[C@H](C)NC(=O)[C@@H](NC(=O)C1(NC(=O)[C@H](Cc2ccc(O)cc2)NC(=O)[C@H](CC(=O)O)NC(=O)[C@H](CO)NC(=O)[C@@H](NC(=O)[C@H](Cc2ccccc2)NC(=O)[C@@H](NC(=O)CNC(=O)[C@H](CCC(=O)O)NC(=O)C(C)(C)NC(=O)[C@@H](N)Cc2c(C)cc(O)cc2C)[C@@H](C)O)[C@@H](C)CC)CCCC1)[C@@H](C)CC)C(=O)N[C@@H](Cc1c[nH]cn1)C(=O)N[C@@H](CCC(N)=O)C(=O)N[C@@H](CCC(N)=O)C(=O)N[C@@H](CC(=O)O)C(=O)N[C@@H](Cc1ccccc1)C(=O)N[C@H](C(=O)N[C@@H](CC(N)=O)C(=O)N[C@@H](Cc1c[nH]c2ccccc12)C(=O)N[C@@H](CC(C)C)C(=O)N[C@@H](CC(C)C)C(=O)N[C@@H](C)C(=O)N[C@@H](CCC(N)=O)C(=O)N[C@@H](CCCCN)C(=O)NCC(=O)N[C@@H](CCCCN)C(=O)N[C@@H](CCCCN)C(=O)N[C@@H](CC(N)=O)C(=O)N[C@@H](CC(=O)O)C(=O)N[C@@H](Cc1c[nH]c2ccccc12)C(=O)N[C@@H](CCCCN)C(=O)N[C@@H](Cc1c[nH]cn1)C(=O)N[C@@H](CC(N)=O)C(=O)N[C@H](C(=O)NC1(C(=O)N[C@@H](CCC(N)=O)C(=O)O)CCCC1)[C@@H](C)CC)C(C)C` [Example 30, (2,6Me-Tyr^1, Aib^2, A5c^11, 41)hGIP(1-42)-OH], for which the figures for the half-life at 0.1 mg/ml in series [1] and in series [2] were 27.6 h and 7.2 h, respectively. In addition, the Ki in series [3] is 1.03 nM.
On the same counts, the results for `CC[C@H](C)[C@H](NC(=O)[C@H](CCCCN)NC(=O)[C@H](CC(=O)O)NC(=O)[C@H](CCSC)NC(=O)[C@H](C)NC(=O)[C@@H](NC(=O)C1(NC(=O)[C@H](Cc2ccc(O)cc2)NC(=O)[C@H](CC(=O)O)NC(=O)[C@H](CO)NC(=O)[C@@H](NC(=O)[C@H](Cc2ccccc2)NC(=O)[C@@H](NC(=O)CNC(=O)[C@H](CCC(=O)O)NC(=O)C(C)(C)NC(=O)[C@@H](N)Cc2ccc(OC)cc2)[C@@H](C)O)[C@@H](C)CC)CCCC1)[C@@H](C)CC)C(=O)N[C@@H](Cc1c[nH]cn1)C(=O)N[C@@H](CCC(N)=O)C(=O)N[C@@H](CCC(N)=O)C(=O)N[C@@H](CC(=O)O)C(=O)N[C@@H](Cc1ccccc1)C(=O)N[C@H](C(=O)N[C@@H](CC(N)=O)C(=O)N[C@@H](Cc1c[nH]c2ccccc12)C(=O)N[C@@H](CC(C)C)C(=O)N[C@@H](CC(C)C)C(=O)N[C@@H](C)C(=O)N[C@@H](CCC(N)=O)C(=O)N[C@@H](CCCCN)C(=O)NCC(=O)N[C@@H](CCCCN)C(=O)N[C@@H](CCCCN)C(=O)N[C@@H](CC(N)=O)C(=O)N[C@@H](CC(=O)O)C(=O)N[C@@H](Cc1c[nH]c2ccccc12)C(=O)N[C@@H](CCCCN)C(=O)N[C@@H](Cc1c[nH]cn1)C(=O)N[C@@H](CC(N)=O)C(=O)N[C@H](C(=O)NC1(C(=O)N[C@@H](CCC(N)=O)C(=O)O)CCCC1)[C@@H](C)CC)C(C)C` [Example 31, [Tyr(Me)^1, Aib^2, A5c^11, 41]hGIP(1-42)-OH] are 34.8 h, 9.7 h and 4.5 nM.
